Patent US20210275577A1, “MOLECULAR HYDROGEN-CONTAINING COMPOSITION FOR REGULATING INTRACELLULAR SIGNAL TRANSDUCTION” (MiZ Company Limited, priority 2020, published 2021)
Like-named read-outs stand apart in the source and are kept apart here.

How the values were obtained:
[1] = CLP model mice, hydrogen gas treatment group; comparison value 74 mg/dL
Protocol: (§1) Cecal ligation and puncture (CLP) or sham surgery were performed on 9-week-old C57BL/6 male mice. Then, the CLP model mice were forced to inhale a 7% hydrogen gas. The inhalation time were two hours per day for one group and continuous 24 hours for the other group. The mice were housed in a chamber in which the concentration of a hydrogen gas could be maintained by a constant supply of a hydrogen gas from a gas generating apparatus (MHG-2000α manufactured by MiZ Company Limited), and forced to inhale the hydrogen gas therein. The mice in the control group were forced to inhale air not containing hydrogen. Mice were bred under a hydrogen gas atmosphere for one week, and the survival rate was evaluated. The serum inflammatory cytokine levels were evaluated using a Quantikine ELISA Kit (INFO) at 24 hours after CLP. The liver, the intestine, and the lung of mice were evaluated by RNA sequencing after inhalation of a hydrogen gas. Data were analyzed using Ingenuity Pathways Analysis (IPA: Qiagen Inc.). Additionally, expression of inflammatory genes in the intestine was investigated by RT-PCR.

IL-6 = conditions: 24 hours after CLP
Protocol: as §1

TNF-α = conditions: 24 hours after CLP
Protocol: as §1

[2] = tested on: cecal ligation and puncture (CLP) model mice
Protocol: as §1

[3] = tested on: genes related to glycolysis and gluconeogenesis; inflammatory signal transduction pathways
Protocol: as §1

[4] = after inhalation of a hydrogen gas
[5] = room temperature, normal pressure; cited from earlier work

In the case of `[HH]` [hydrogen gas, molecular hydrogen], the blood glucose level [1] is reported as 127 mg/dL, the “serum IL-6 level” value (IL-6) is reported as “attenuated” and the “serum TNF-α level” value (TNF-α) is reported as “attenuated”. The survival rate ([2]; 7% hydrogen gas, continuous inhalation over 24 hours for 7 days, control 40%, p<0.05, n=20 vs. 20) was 75%, the survival rate ([2]; continuous inhalation time increased to five hours, 12 hours, and 24 hours) was “improved” and the “survival rate vs control” value ([2]; continuous inhalation time per day one hour) was “no difference from control was observed”. The “survival rate vs control” value ([2]; continuous inhalation time two hours) was “differences started to be observed”, the “change in levels of genes vs control” value ([3]; hydrogen inhalation time two hours or longer per day) was “differences started to be observed” and the “inflammatory signal transduction pathways (acute phase response signaling, STAT pathway), z-scores” value ([3]; liver and intestine of the CLP model at 24 hours) was “inactive”. The “genes related to glycolysis and gluconeogenesis” value ([3]; liver, GO and pathway enrichment analysis) was “upregulation”, the “time for hydrogen to reach the liver” value [4] was at least 10 min and the “time for hydrogen to reach the lung” value [4] was “rapidly”. For the same compound, the “concentration dissolved in water (solubility)” value [5] was “approximately 1.6 ppm”.
